Assay results published in the supplement of paper PMC10307832.

Columns and labels:
Assay in all cases: relative viability (nuclei count vs DMSO), 5 days (fraction); higher = more cells survive
[1] = compound: Cc1ccc(C(=O)N(CCCN)[C@@H](c2nc3cc(Cl)ccc3c(=O)n2Cc2ccccc2)C(C)C)cc1 [Ispinesib] + N=C(N)NC(=N)NCCc1ccccc1 [Phenformin] (partner 250 µM)
Summary of the method: (§1)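 Cells from lung cancer lines were seeded into 1536-well plates and, one day later, dosed by pin tool. Treatments were either a single drug or a fixed dose of an anchor drug with five library-drug doses (not always all listed) in √10 steps. After 5 days, nuclei were stained in a one-step fixation (final 0.05% Triton X-100, 1% formaldehyde, 1 ug/ml Hoechst) and counted on 4× images, and relative viability is the treated-to-vehicle nuclei ratio, as the median of duplicate plates.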

[2] = compound: C[C@]1(O)C[C@@H](c2nc(-c3ccc4ccc(-c5ccccc5)nc4c3)c3c(N)nccn32)C1 [Linsitinib] + Cc1nc(Nc2ncc(C(=O)Nc3c(C)cccc3Cl)s2)cc(N2CCN(CCO)CC2)n1 [Dasatinib] (partner 0.075 µM)
Summary of the method: as §1

[3] = compound: C[C@]1(O)C[C@@H](c2nc(-c3ccc4ccc(-c5ccccc5)nc4c3)c3c(N)nccn32)C1 [Linsitinib] + CS(=O)(=O)CCNCc1ccc(-c2ccc3ncnc(Nc4ccc(OCc5cccc(F)c5)c(Cl)c4)c3c2)o1 [Lapatinib] (partner 2 µM)
Summary of the method: as §1

[4] = compound: Cc1ccc(C(=O)N(CCCN)[C@@H](c2nc3cc(Cl)ccc3c(=O)n2Cc2ccccc2)C(C)C)cc1 [Ispinesib] + COc1cccc2cc(-c3nc([C@H]4CC[C@H](C(=O)O)CC4)n4ncnc(N)c34)[nH]c12 [OSI-027] (partner 0.5 µM)
Summary of the method: as §1

| Cell Line | relative viability ([1]; first compound 0.001 µM) | relative viability ([1]; first compound 0.003162 µM) | relative viability ([1]; first compound 0.01 µM) | relative viability ([1]; first compound 0.03162 µM) | relative viability ([1]; first compound 0.1 µM) | relative viability ([2]; first compound 0.01 µM) | relative viability ([2]; first compound 0.03162 µM) | relative viability ([2]; first compound 0.1 µM) | relative viability ([2]; first compound 0.3162 µM) | relative viability ([2]; first compound 1 µM) | relative viability ([3]; first compound 0.01 µM) | relative viability ([3]; first compound 0.03162 µM) | relative viability ([3]; first compound 0.1 µM) | relative viability ([3]; first compound 0.3162 µM) | relative viability ([3]; first compound 1 µM) | relative viability ([4]; first compound 0.001 µM) | relative viability ([4]; first compound 0.003162 µM) | relative viability ([4]; first compound 0.01 µM) | relative viability ([4]; first compound 0.03162 µM) | relative viability ([4]; first compound 0.1 µM) |
| --- | --- | --- | --- | --- | --- | --- | --- | --- | --- | --- | --- | --- | --- | --- | --- | --- | --- | --- | --- | --- |
| 201T | 0.462 | 0.533 | 0.559 | 0.427 | 0.24 | 0.604 | 0.581 | 0.531 | 0.725 | 0.439 | 0.967 | 1.06 | 1.07 | 0.789 | 0.978 | 0.828 | 0.952 | 0.834 | 0.56 | 0.181 |
| A549 | 0.12 | 0.18 | 0.899 | 0.0923 | 0.048 |  |  |  |  |  | 0.981 | 1.02 | 0.816 | 0.783 | 0.443 |  |  |  |  |  |
| A-427 | 0.377 | 0.415 | 0.333 | 0.168 | 0.158 | 0.712 | 0.78 | 0.723 |  | 0.631 | 1.02 | 0.723 | 1.06 |  | 1.08 | 0.508 | 0.449 | 0.571 | 0.155 | 0.181 |
| ABC-1 | 0.278 | 0.223 | 0.289 | 0.197 | 0.226 | 0.574 | 0.469 | 0.504 | 0.541 | 0.448 | 1.13 | 1.5 | 1.32 | 1.34 | 1.21 | 0.488 | 0.524 | 0.58 | 0.203 | 0.283 |
| BEN | 0.243 | 0.27 | 0.252 | 0.27 | 0.203 | 0.419 | 0.316 | 0.318 |  | 0.352 | 0.84 | 0.685 | 0.563 |  | 0.58 | 0.312 | 0.306 | 0.341 | 0.38 | 0.202 |
| CAL-12T | 0.515 | 0.57 | 0.592 | 0.139 | 0.172 | 0.362 | 0.359 | 0.485 | 0.178 | 0.273 | 0.705 | 0.613 | 0.655 | 0.576 | 0.518 | 0.737 | 0.584 | 0.701 | 0.166 | 0.177 |
| COR-L23 | 0.437 | 0.444 | 0.448 | 0.123 | 0.133 | 0.424 | 0.456 | 0.416 | 0.375 | 0.346 | 0.798 | 0.916 | 1.16 | 0.825 | 0.944 | 0.808 | 0.918 | 0.931 | 0.357 | 0.214 |
| COR-L 105 | 0.602 | 0.455 | 0.366 | 0.216 | 0.258 | 0.321 | 0.374 | 0.294 | 0.289 | 0.252 | 0.452 | 0.35 | 0.357 | 0.325 | 0.296 | 0.769 | 0.603 | 0.585 | 0.266 | 0.305 |
| Calu-6 |  |  |  |  |  |  |  |  |  |  | 0.98 | 0.949 | 1.18 | 0.985 | 0.947 |  |  |  |  |  |
| ChaGo-K-1 | 0.519 | 0.5 | 0.529 | 0.535 | 0.172 | 0.649 | 0.5 | 0.588 | 0.415 | 0.588 |  |  |  |  |  | 0.529 | 0.627 | 0.582 | 0.627 | 0.222 |
| EBC-1 |  |  |  |  |  |  |  |  |  |  | 0.259 | 0.26 | 0.248 | 0.244 | 0.2 |  |  |  |  |  |
| HCC-44 | 0.252 | 0.175 | 0.146 | 0.1 | 0.0891 |  |  |  |  |  | 1.02 | 0.859 | 0.983 | 0.357 | 0.63 | 0.458 | 0.812 | 0.505 | 0.484 | 0.151 |
| IA-LM |  |  |  |  |  |  |  |  |  |  | 0.962 | 1.02 | 0.854 | 0.61 | 0.437 |  |  |  |  |  |
| LCLC-103H | 0.34 | 0.389 | 0.366 | 0.293 | 0.269 | 0.444 | 0.517 | 0.474 | 0.428 | 0.368 |  |  |  |  |  | 0.562 | 0.585 | 0.527 | 0.366 | 0.357 |
| NCI-H441 | 0.977 | 0.823 | 0.84 | 0.247 | 0.301 | 0.484 | 0.55 | 0.614 | 0.349 | 0.303 |  |  |  |  |  | 0.582 | 0.738 | 0.517 | 0.175 | 0.285 |
| NCI-H522 | 0.613 | 0.627 | 0.694 | 0.603 | 0.349 | 0.829 | 1.03 | 0.902 |  | 0.86 |  |  |  |  |  | 0.746 | 0.759 | 0.715 | 0.555 | 0.414 |
| NCI-H1299 |  |  |  |  |  |  |  |  |  |  | 0.989 | 0.89 | 0.996 | 0.952 | 1.01 |  |  |  |  |  |
| NCI-H1623 | 0.587 | 0.597 | 0.617 | 0.563 | 0.396 | 0.561 | 0.527 | 0.45 |  | 0.415 |  |  |  |  |  | 0.433 | 0.439 | 0.451 | 0.406 | 0.4 |
| NCI-H1648 |  |  |  |  |  |  |  |  |  |  |  |  |  |  |  | 0.274 | 0.312 | 0.212 | 0.226 | 0.238 |
| NCI-H1703 |  |  |  |  |  |  |  |  |  |  | 1.06 |  | 1.52 | 1.38 | 1.09 |  |  |  |  |  |
| NCI-H2342 | 0.671 | 0.634 | 0.685 | 0.523 | 0.378 | 0.307 | 0.306 | 0.306 | 0.353 | 0.298 |  |  |  |  |  | 0.631 | 0.741 | 0.593 | 0.48 | 0.456 |
| SW 900 | 0.619 | 0.41 | 0.812 | 0.427 | 0.21 | 0.537 | 0.739 | 0.85 | 0.319 | 0.322 |  |  |  |  |  | 0.751 | 0.617 | 0.553 | 0.345 | 0.225 |
